Experimental findings from patent US20230167073A1 (Teijin Pharma Limited, priority 2020, published 2023) are described below.

Molecules are shown by their SMILES. Some results are limits rather than exact numbers.

The target in the experiment is T1, Human TRPC6 (Homo sapiens, UniProt Q9Y210).
T1 construct: expressed in transfected cells
T1 sequence (Q9Y210 1-931): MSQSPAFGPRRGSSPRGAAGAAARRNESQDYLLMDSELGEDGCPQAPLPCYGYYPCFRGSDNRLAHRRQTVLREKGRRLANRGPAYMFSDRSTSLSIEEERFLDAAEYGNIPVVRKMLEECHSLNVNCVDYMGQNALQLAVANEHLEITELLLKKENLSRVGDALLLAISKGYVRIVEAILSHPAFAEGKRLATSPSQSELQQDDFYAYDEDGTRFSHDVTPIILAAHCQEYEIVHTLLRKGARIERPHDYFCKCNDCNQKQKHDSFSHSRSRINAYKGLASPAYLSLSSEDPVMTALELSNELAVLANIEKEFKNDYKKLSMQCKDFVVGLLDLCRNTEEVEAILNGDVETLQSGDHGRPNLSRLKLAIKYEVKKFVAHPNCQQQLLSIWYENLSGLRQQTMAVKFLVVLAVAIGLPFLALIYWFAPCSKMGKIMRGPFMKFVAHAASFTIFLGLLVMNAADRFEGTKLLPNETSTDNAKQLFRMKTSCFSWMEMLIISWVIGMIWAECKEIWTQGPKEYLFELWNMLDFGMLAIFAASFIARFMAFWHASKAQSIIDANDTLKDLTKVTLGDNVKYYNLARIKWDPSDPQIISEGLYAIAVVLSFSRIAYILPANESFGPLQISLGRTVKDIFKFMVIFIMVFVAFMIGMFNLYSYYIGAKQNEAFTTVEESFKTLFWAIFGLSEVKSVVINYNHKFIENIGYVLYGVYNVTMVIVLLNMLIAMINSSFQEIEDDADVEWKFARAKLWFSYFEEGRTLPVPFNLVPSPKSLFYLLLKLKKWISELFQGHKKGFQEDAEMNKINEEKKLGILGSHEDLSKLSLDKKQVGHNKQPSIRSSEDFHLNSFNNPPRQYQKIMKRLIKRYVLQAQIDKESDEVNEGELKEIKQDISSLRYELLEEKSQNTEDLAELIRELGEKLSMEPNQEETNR
The experiment in a line: Evaluation of TRPC6 channel inhibitory activity (1), FLIPR Calcium 5 Assay Kit, OAG stimulation (Compound Nos. 1-1293). Format: cell-based. As to conditions: Human TRPC6 stably-expressing cells, OAG 30 μM, FLIPR Calcium 5 Assay Kit; read-out: Inhibitory activity (pIC50 class) (converted). In a few lines:
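Cells stably expressing human TRPC6, plated 24 h before, were loaded 30 min with Calcium 5 dye plus probenecid in HEPES-HBSS. Compound was added 20 min before OAG (30 μM final) and fluorescence tracked on FLIPR. Inhibition normalised to no-compound and no-compound/no-OAG wells; pIC50 from four-parameter fit, reported as +/++/+++ categories.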
For the molecule `Cc1nc(Oc2cc(C#N)ccc2-c2ncc(CCN)cn2)cc(-c2ncc(C)s2)n1` [compound 602, 4-[5-(2-aminoethyl)pyrimidin-2-yl]-3-[2-methyl-6-(5-methyl-1,3-thiazol-2-yl)pyrimidm-4-yl]oxybenzonitrile], the IC50 was 10 to 1000 nM. The same measure for `Cc1cc(Oc2cc(C#N)ccc2-c2ncc(CCN)cn2)no1` [compound 677, 4-[5-(2-aminoethyl)pyrimidin-2-yl]-3-[(5-methyl-1,2-oxazol-3-yl)oxy]benzonitrile]: more than 1000 nM; for `CCN(CC)c1cc(C(=O)c2cc(C#N)ccc2-c2ncc(CCN)cn2)n(C)n1` [compound 1032, 4-[5-(2-aminoethyl)pyrimidin-2-yl]-3-[5-(diethylamino)-2-methylpyrazole-3-carbonyl]benzonitrile]: less than 10 nM; for `Cc1nc(Oc2cc(C#N)ccc2-c2ncc(CCN)cn2)cc(N(C)C(C)C)n1` [compound 857, 4-[5-(2-aminoethyl)pyrimidin-2-yl]-3-[2-methyl-6-[methyl(propan-2-yl)amino]pyrimidin-4-yl]oxybenzonitrile]: less than 10 nM. The same measure for `COCCCCN(C)c1cc(Oc2cc(C#N)ccc2-c2ncc(CCN)cn2)n(C)n1` [compound 838, 4-[5-(2-aminoethyl)pyrimidin-2-yl]-3-[5-[4-methoxybutyl(methyl)amino]-2-methylpyrazol-3-yl]oxybenzonitrile]: 10 to 1000 nM; for `N#Cc1ccc(-c2ncc(CN)cn2)c(Oc2cc(N3CCOCC3)cnn2)c1` [compound 535, 4-[5-(aminomethyl)pyrimidin-2-yl]-3-(5-morpholin-4-ylpyridazin-3-yl)oxybenzonitrile]: more than 1000 nM; for `Cc1cc(Oc2cc(C#N)ccc2-c2cnc(CN)s2)cc(N2CCOCC2)n1` [compound 607, 4-[2-(aminomethyl)-1,3-thiazol-5-yl]-3-(2-methyl-6-morpholin-4-ylpyridin-4-yl)oxybenzonitrile]: more than 1000 nM.

Regarding `Cc1nc(Oc2cc(C#N)ccc2-c2ncc(CCN)cn2)cc(N2CCC[C@H]2C)n1` [compound 859, 4-[5-(2-aminoethyl)pyrimidin-2-yl]-3-[2-methyl-6-[(2R)-2-methylpyrrolidin-1-yl]pyrimidin-4-yl]oxybenzonitrile], the IC50 is less than 10 nM.

On to `Cc1ncc(N2CCOCC2)cc1Oc1cc(C#N)ccc1-c1ncc(CN)cn1` [compound 920, 4-[5-(aminomethyl)pyrimidin-2-yl]-3-(2-methyl-5-morpholin-4-ylpyridin-3-yl)oxybenzonitrile], for which the IC50 was more than 1000 nM. Take `CCC(OC)c1cn(Cc2cc(C#N)ccc2-c2ncc(CCN)cn2)c(C)n1` (stereo not drawn) [compound 1142, 4-[5-(2-aminoethyl)pyrimidin-2-yl]-3-[[4-(1-methoxypropyl)-2-methylimidazol-1-yl]methyl]benzonitrile]: the IC50 was 10 to 1000 nM. The same measure for `Cc1cc(Oc2cc(C#N)ccc2-c2ccc(CN)n3ccnc23)cc(N2CCOCC2)n1` [compound 494, 4-[5-(aminomethyl)imidazo[1,2-a]pyridin-8-yl]-3-(2-methyl-6-morpholin-4-ylpyridin-4-yl)oxybenzonitrile]: 10 to 1000 nM. With `CN(C)C(=O)C(N)c1ccc(-c2ccc(C#N)cc2Oc2cc(C3CC3)nn2C)nc1` (stereo not drawn) [compound 489, 2-amino-2-[6-[4-cyano-2-(5-cyclopropyl-2-methylpyrazol-3-yl)oxyphenyl]pyridin-3-yl]-N,N-dimethylacetamide] the figure was more than 1000 nM. The same measure for `N#Cc1ccc(-n2cc(C(O)CN)cn2)c(Oc2cc(N3CCOCC3)nc(C(F)(F)F)n2)c1` (stereo not drawn) [Compound 155, 4-[4-(2-amino-1-hydroxyethyl)pyrazol-1-yl]-3-[6-morpholin-4-yl-2-(trifluoromethyl)pyrimidin-4-yl]oxybenzonitrile]: 10 to 1000 nM; for `N#Cc1ccc(-c2ccc(CCN)cc2)c(Oc2cnnc(C3CCCC3)c2)c1` [Compound 137, 4-[4-(2-aminoethyl)phenyl]-3-(6-cyclopentylpyridazin-4-yl)oxybenzonitrile]: less than 10 nM. Regarding `Cc1cc(Oc2cc(C#N)ccc2-c2ncc([C@H](O)CN)cn2)cc(N2CCO[C@@H](C)C2)n1` [compound 530, 4-[5-[(1S)-2-amino-1-hydroxyethyl]pyrimidin-2-yl]-3-[2-methyl-6-[(2S)-2-methylmorpholin-4-yl]pyridin-4-yl]oxybenzonitrile], the IC50 was less than 10 nM. With `N#Cc1ccc(-n2cc(C(O)CN)cn2)c(Oc2cnnc(-c3ccccc3)c2)c1` (stereo not drawn) [Compound 154, 4-[4-(2-amino-1-hydroxyethyl)pyrazol-1-yl]-3-(6-phenylpyridazin-4-yl)oxybenzonitrile] the figure was 10 to 1000 nM; with `CC(C)(C)COc1cc(Oc2cc(C#N)ccc2-c2ccc(CCN)cc2)cnn1` [Compound 108, 4-[4-(2-aminoethyl)phenyl]-3-[6-(2,2-dimethylpropoxy)pyridazin-4-yl]oxybenzonitrile], 10 to 1000 nM; with `CCN(CC)c1cc(Oc2cc(C#N)ccc2-c2ncc(CN)cn2)nc(C)n1` [compound 791, 4-[5-(aminomethyl)pyrimidin-2-yl]-3-[6-(diethylamino)-2-methylpyrimidin-4-yl]oxybenzonitrile], 10 to 1000 nM. With `Cn1nc(-c2ccc(F)cc2)cc1Oc1cc(C#N)ccc1-c1ccc(CCN)nc1` [Compound 184, 4-[6-(2-aminoethyl)pyridin-3-yl]-3-[5-(4-fluorophenyl)-2-methylpyrazol-3-yl]oxybenzonitrile] the figure was 10 to 1000 nM; with `Cc1cc(Oc2cc(C#N)ccc2-c2ccc([C@H](O)CN)cn2)cc(-c2ccccn2)n1` [compound 691, 4-[5-[(1S)-2-amino-1-hydroxyethyl]pyridin-2-yl]-3-(2-methyl-6-pyridin-2-ylpyridin-4-yl)oxybenzonitrile], less than 10 nM; with `Cn1nc(-c2ccc(F)cn2)cc1Oc1cc(C#N)ccc1-c1ncc(CN)cn1` [compound 651, 4-[5-(aminomethyl)pyrimidin-2-yl]-3-[5-(5-fluoropyridin-2-yl)-2-methylpyrazol-3-yl]oxybenzonitrile], less than 10 nM.

Turning to `Cn1nc(-c2ncccn2)cc1Oc1cc(C#N)ccc1-c1ccc([C@H](O)CN)cn1` [compound 540, 4-[5-[(1S)-2-amino-1-hydroxyethyl]pyridin-2-yl]-3-(2-methyl-5-pyrimidin-2-ylpyrazol-3-yl)oxybenzonitrile], the IC50 was more than 1000 nM. With `Cn1nc(C(=O)O)cc1Oc1cc(C#N)ccc1-c1ccc(CCN)cn1` [compound 316, 5-[2-[5-(2-aminoethyl)pyridin-2-yl]-5-cyanophenoxy]-1-methylpyrazole-3-carboxylic acid] the figure was more than 1000 nM; with `Cc1nc(NCC(C)C)cc(Oc2cc(C#N)ccc2-c2ncc(CN)cn2)n1` [compound 634, 4-[5-(aminomethyl)pyrimidin-2-yl]-3-[2-methyl-6-(2-methylpropylamino)pyrimidin-4-yl]oxybenzonitrile], less than 10 nM. In the case of `CC(C)n1cc(C(=O)c2cc(F)ccc2-c2ncc(CCN)cn2)cn1` [compound 1102, [2-[5-(2-aminoethyl)pyrimidin-2-yl]-5-fluorophenyl]-(1-propan-2-ylpyrazol-4-yl)methanone], the IC50 was 10 to 1000 nM. Take `Cn1nc(-c2cncs2)cc1Oc1cc(C#N)ccc1-c1ncc(CN)cn1` [compound 935, 4-[5-(aminomethyl)pyrimidin-2-yl]-3-[2-methyl-5-(1,3-thiazol-5-yl)pyrazol-3-yl]oxybenzonitrile]: the IC50 is less than 10 nM. The same measure for `Cc1nc(Oc2cc(C#N)ccc2-c2ncc([C@@H](F)CN)cn2)cc(N2CCOCC2)n1` [compound 878, 4-[5-[(1R)-2-amino-1-fluoroethyl]pyrimidin-2-yl]-3-(2-methyl-6-morpholin-4-ylpyrimidin-4-yl)oxybenzonitrile]: less than 10 nM; for `Cn1nc(C2CC2)cc1Oc1cc(F)ccc1-c1ncc(CCN)cn1` [compound 1017, 2-[2-[2-(5-cyclopropyl-2-methylpyrazol-3-yl)oxy-4-fluorophenyl]pyrimidin-5-yl]ethanamine]: less than 10 nM. With `N#Cc1ccc(-c2ccc(CCN)cn2)c(C(=O)c2nnc(N3CCOCC3)s2)c1` [compound 1094, 4-[5-(2-aminoethyl)pyridin-2-yl]-3-(5-morpholin-4-yl-1,3,4-thiadiazole-2-carbonyl)benzonitrile], the IC50 is 10 to 1000 nM. The same measure for `N#Cc1ccc(-c2ncc(CCN)cn2)c(Oc2cnn(CC(F)F)c2)c1` [compound 927, 4-[5-(2-aminoethyl)pyrimidin-2-yl]-3-[1-(2,2-difluoroethyl)pyrazol-4-yl]oxybenzonitrile]: 10 to 1000 nM.
